Laboratory results published in patent US11013717B1, “Methods and compositions for treating cancer using SERCA pump inhibitors” (priority 2018, dated 2021).

Tested on: CD8+ T-cells isolated from human PBMCs
Test: Activation of anti-CD3/anti-CD28 stimulated CD8+ T-cells treated with SERCA inhibitors, cytokine release (IFNγ, TNFα) by intracellular staining flow cytometry
Assay type: cell-based
Settings: for Fold Change % IFNγ+ Cells (Normalized to Bead Stimulated Only): overnight, anti-CD3/anti-CD28 bead stimulated human CD8+ T-cells; for T cell activation / interferon gamma (IFNγ) production / secretion by CD8+ T cells: human CD8+ T-cells stimulated with anti-CD3/anti-CD28 beads, overnight incubation, thapsigargin 1.5 μM, cyclopiazonic acid 3 μM, NS-1619 30-100 μM; for T cell activation: activation measured by cytokine release
Protocol: CD8+ T-cells were isolated from human PBMCs using negative magnetic bead selection (Stemcell Technologies). Cells stimulated with anti-CD3/anti-CD28 beads (Life Technologies) and were treated with different SERCA inhibitors: thapsigargin (1.5 μM), cyclopiazonic acid (3 μM), and NS-1619 (30-100 μM). All incubations were done overnight. Subsequent activation was measured by cytokine release using intracellular staining flow cytometry of IFNγ and TNFα, using fluorescently labeled antibodies (Biolegend).

SMILES | Fold Change % IFNγ+ Cells (Normalized to Bead Stimulated Only) (30 μM) [fold] | Fold Change % IFNγ+ Cells (Normalized to Bead Stimulated Only) (100 μM) [fold] | T cell activation | interferon gamma (IFNγ) production / secretion by CD8+ T cells | Fold Change % IFNγ+ Cells (Normalized to Bead Stimulated Only) (1.5 μM) [fold] | Fold Change % IFNγ+ Cells (Normalized to Bead Stimulated Only) (3 μM) [fold]
O=c1[nH]c2cc(C(F)(F)F)ccc2n1-c1cc(C(F)(F)F)ccc1O [NS-1619] | 1.1 | 2.68 | led to T cell activation | increased |  | 
C/C=C(/C)C(=O)O[C@H]1C(C)=C2[C@H]([C@@H]1OC(=O)CCCCCCC)[C@@](C)(OC(C)=O)C[C@H](OC(=O)CCC)[C@@]1(O)[C@H]2OC(=O)[C@@]1(C)O [thapsigargin] |  |  | led to T cell activation | increased | 2.08 | 
CC(=O)C1=C(O)[C@@H]2[C@H]3c4c[nH]c5cccc(c45)C[C@H]3C(C)(C)N2C1=O [cyclopiazonic acid] |  |  |  |  |  | 2.38
